PubChem BioAssay (NCI)
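Test compounds were applied to cells in 96-well plates for 48 hours at 5 doses. TGI: concentration producing complete growth inhibition.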

What was measured:
Experiment in all cases: NCI anticancer screen, dose series, 48 h
[1] = system: HCT-116 colon
[2] = system: UACC-62 melanoma
[3] = system: SW-620 colon
[4] = system: SNB-75 CNS
[5] = system: DLD-1 colon
[6] = system: OVCAR-3 ovarian
[7] = system: SF-539 CNS
[8] = system: SK-MEL-5 melanoma
[9] = system: U251 CNS
[10] = system: K-562 leukemia
[11] = system: DMS 114 small cell lung
[12] = system: KM12 colon
[13] = system: SK-MEL-28 melanoma
[14] = system: EKVX NSCLC
[15] = system: KM20L2 colon
[16] = system: OVCAR-5 ovarian
[17] = system: SF-295 CNS
[18] = system: CAKI-1 renal
[19] = system: LXFL 529 NSCLC
[20] = system: HOP-92 NSCLC
[21] = system: NCI-H522 lung
[22] = system: TK-10 renal
[23] = system: 786-0 renal
[24] = system: SF-268 CNS
[25] = system: NCI-H460 lung
[26] = system: CCRF-CEM leukemia
[27] = system: HT29 colon
[28] = system: A549 NSCLC
[29] = system: SK-MEL-2 melanoma
[30] = system: HOP-62 NSCLC
[31] = system: HOP-18 NSCLC
[32] = system: HCC-2998 colon
[33] = system: HL-60(TB) leukemia
[34] = system: M19-MEL melanoma
[35] = system: SNB-19 CNS
[36] = system: UACC-257 melanoma
[37] = system: OVCAR-4 ovarian
[38] = system: RPMI-8226 leukemia
[39] = system: HCT-15 colon
[40] = system: DMS 273 small cell lung
[41] = system: LOX IMVI melanoma
[42] = system: UO-31 renal
[43] = system: NCI-H226 lung
[44] = system: SK-OV-3 ovarian
[45] = system: SNB-78 CNS
[46] = system: MALME-3M melanoma
[47] = system: COLO 205 colon
[48] = system: M14 melanoma
[49] = system: SN12C renal
[50] = system: ACHN renal
[51] = system: IGROV1 ovarian
[52] = system: SR leukemia
[53] = system: MOLT-4 leukemia
[54] = system: OVCAR-8 ovarian
[55] = system: NCI-H23 lung
[56] = system: PC-3 prostate
[57] = system: MCF7 breast
[58] = system: MDA-MB-435
[59] = system: NCI/ADR-RES ovarian
[60] = system: MDA-MB-231 breast
[61] = system: RXF 393 renal
[62] = system: BT-549 breast
[63] = system: T-47D breast
[64] = system: DU-145 prostate
[65] = system: A498 renal

COc1ccc(-c2cn3ccsc3n2)cc1
TGI [1]: > 100 µM
TGI [2]: > 100 µM
TGI [3]: 34.9 µM
TGI [4]: > 100 µM
TGI [5]: > 100 µM
TGI [6]: > 100 µM
TGI [7]: > 100 µM
TGI [8]: > 100 µM
TGI [9]: > 100 µM
TGI [10]: > 100 µM
TGI [11]: > 100 µM
TGI [12]: > 100 µM
TGI [13]: > 100 µM
TGI [14]: > 100 µM
TGI [15]: > 100 µM
TGI [16]: > 100 µM
TGI [17]: > 100 µM
TGI [18]: > 100 µM
TGI [19]: > 100 µM
TGI [20]: > 100 µM
TGI [21]: > 100 µM
TGI [22]: > 100 µM
TGI [23]: > 100 µM
TGI [24]: > 100 µM
TGI [25]: > 100 µM
TGI [26]: > 100 µM
TGI [27]: > 100 µM
TGI [28]: > 100 µM
TGI [29]: > 100 µM
TGI [30]: > 100 µM
TGI [31]: > 100 µM
TGI [32]: > 100 µM
TGI [33]: 85.7 µM
TGI [34]: > 100 µM
TGI [35]: > 100 µM
TGI [36]: > 100 µM
TGI [37]: > 100 µM
TGI [38]: 54.6 µM
TGI [39]: > 100 µM
TGI [40]: > 100 µM
TGI [41]: > 100 µM
TGI [42]: > 100 µM
TGI [43]: > 100 µM
TGI [44]: > 100 µM
TGI [45]: > 100 µM
TGI [46]: > 100 µM
TGI [47]: > 100 µM
TGI [48]: > 100 µM
TGI [49]: > 100 µM
TGI [50]: > 100 µM
TGI [51]: > 100 µM
TGI [52]: 75.6 µM
TGI [53]: > 100 µM
TGI [54]: > 100 µM
TGI [55]: > 100 µM

COc1ccc(C(C)c2cc3c(cc2OC)OCO3)cc1 (centres undefined)
TGI [1]: 46.3 µM
TGI [56]: > 100 µM
TGI [2]: > 69.2 µM
TGI [57]: 40.6 µM
TGI [3]: > 100 µM
TGI [58]: 0.214 µM
TGI [4]: > 100 µM
TGI [5]: > 100 µM
TGI [6]: 0.598 µM
TGI [7]: 0.275 µM
TGI [8]: 2.31 µM
TGI [59]: 28.2 µM
TGI [9]: > 100 µM
TGI [10]: > 57.6 µM
TGI [11]: 2.77 µM
TGI [12]: > 41 µM
TGI [13]: > 100 µM
TGI [14]: > 100 µM
TGI [15]: 0.533 µM
TGI [60]: 4.6 µM
TGI [61]: > 100 µM
TGI [16]: > 100 µM
TGI [62]: > 100 µM
TGI [18]: > 100 µM
TGI [19]: > 42.7 µM
TGI [20]: 36 µM
TGI [21]: 0.438 µM
TGI [22]: > 100 µM
TGI [23]: > 53.4 µM
TGI [24]: > 56.2 µM
TGI [25]: 4.69 µM
TGI [26]: > 66.2 µM
TGI [63]: > 100 µM
TGI [27]: 0.43 µM
TGI [28]: > 100 µM
TGI [29]: 2.49 µM
TGI [30]: > 46.2 µM
TGI [31]: > 100 µM
TGI [32]: 3.62 µM
TGI [33]: 2.87 µM
TGI [34]: > 100 µM
TGI [35]: > 100 µM
TGI [64]: > 21.9 µM
TGI [36]: > 75.5 µM
TGI [37]: > 100 µM
TGI [38]: > 48.6 µM
TGI [39]: 13.5 µM
TGI [40]: 1.29 µM
TGI [41]: 27.3 µM
TGI [42]: > 100 µM
TGI [43]: 20.6 µM
TGI [44]: 27 µM
TGI [45]: > 31.6 µM
TGI [46]: 52.2 µM
TGI [47]: 0.927 µM
TGI [48]: 24.5 µM
TGI [49]: 43.5 µM
TGI [50]: > 100 µM
TGI [51]: 7.47 µM
TGI [52]: > 5.04 µM
TGI [53]: > 60.6 µM
TGI [54]: 17.1 µM
TGI [55]: > 21.5 µM
TGI [65]: > 100 µM
